Columns and labels:
[1] = biological target: T1, hSERT (Homo sapiens, UniProt P31645); assay: hSERT membrane radioligand binding assay (Assay 1, 3H-citalopram); conditions: Assay 1, membranes of HEK-293 cells expressing hSERT; read-out: SERT pKi (converted)
T1 construct: expressed in transfected cells; host or cells: HEK-293
Experimental: (§1) Membrane radioligand binding assays were used to measure competitive inhibition of labeled ligand (^3H-citalopram or ^3H-nisoxetine or ^3H-WIN35428) binding to membranes prepared from cells expressing the respective human recombinant transporter (hSERT or hNET or hDAT) in order to determine the pKi values of test compounds at the transporters.
(§2) Recombinant human embryonic kidney (HEK-293) derived cell lines stably transfected with hSERT or hNET, respectively, were grown in DMEM medium supplemented with 10% dialyzed FBS (for hSERT) or FBS (for hNET), 100 μg/ml penicillin, 100 μg/ml streptomycin, 2 mM L-glutamine and 250 μg/ml of the aminoglycoside antibiotic G418, in a 5% CO2 humidified incubator at 37° C. When cultures reached 80% confluence, the cells were washed thoroughly in PBS (without Ca^2+ and Mg^2+) and lifted with 5 mM EDTA in PBS. Cells were pelleted by centrifugation, resuspended in lysis buffer (10 mM Tris-HCl, pH7.5 containing 1 mM EDTA), homogenized, pelleted by centrifugation, then resuspended in 50 mM Tris-HCl, pH 7.5 and 10% sucrose at 4° C. Protein concentration of the membrane suspension was determined using a Bio-Rad Bradford Protein Assay kit. Membranes were snap frozen and stored at −80° C. Chinese hamster ovary membranes expressing hDAT (CHO-DAT) were purchased from PerkinElmer and stored at −80° C.
(§3) Binding assays were performed in a 96-well assay plate in a total volume of 200 μl assay buffer (50 mM Tris-HCl, 120 mM NaCl, 5 mM KCl, pH 7.4) with 0.5, 1, and 3 μg membrane protein, for SERT, NET and DAT, respectively.
(§4) Stock solutions (10 mM in DMSO) of test compound were prepared and serial dilutions made using Dilution Buffer (50 mM Tris-HCl, 120 mM NaCl, 5 mM KCl, pH 7.4, 0.1% BSA, 400 μM ascorbic acid).
(§5) Following a 60 minute incubation at 22° C. (or a period sufficient to reach equilibrium), the membranes were harvested by rapid filtration over a 96-well UniFilter GF/B plate, pretreated with 0.3% polyethyleneimine, and washed 6 times with 300 μl wash buffer (50 mM Tris-HCl, 0.9% NaCl, pH 7.5 at 4° C.). Plates were dried overnight at room temperature, 45 μl of MicroScint™-20 (Perkin Elmer) added and bound radioactivity quantitated via liquid scintillation spectroscopy. Competitive inhibition curves and saturation isotherms were analyzed using GraphPad Prism Software package (GraphPad Software, Inc., San Diego, Calif.). IC50 values were generated from concentration response curves using the Sigmoidal Dose Response (variable slope) algorithm in Prism GraphPad.

[2] = biological target: T2, hNET (Homo sapiens, UniProt P23975); assay: hNET membrane radioligand binding assay (Assay 1, 3H-nisoxetine); conditions: Assay 1, membranes of HEK-293 cells expressing hNET; read-out: NET pKi (converted)
T2 construct: expressed in transfected cells; host or cells: HEK-293
Experimental: as §1, §2, §3, §4, §5

T1 sequence (P31645 whole entry): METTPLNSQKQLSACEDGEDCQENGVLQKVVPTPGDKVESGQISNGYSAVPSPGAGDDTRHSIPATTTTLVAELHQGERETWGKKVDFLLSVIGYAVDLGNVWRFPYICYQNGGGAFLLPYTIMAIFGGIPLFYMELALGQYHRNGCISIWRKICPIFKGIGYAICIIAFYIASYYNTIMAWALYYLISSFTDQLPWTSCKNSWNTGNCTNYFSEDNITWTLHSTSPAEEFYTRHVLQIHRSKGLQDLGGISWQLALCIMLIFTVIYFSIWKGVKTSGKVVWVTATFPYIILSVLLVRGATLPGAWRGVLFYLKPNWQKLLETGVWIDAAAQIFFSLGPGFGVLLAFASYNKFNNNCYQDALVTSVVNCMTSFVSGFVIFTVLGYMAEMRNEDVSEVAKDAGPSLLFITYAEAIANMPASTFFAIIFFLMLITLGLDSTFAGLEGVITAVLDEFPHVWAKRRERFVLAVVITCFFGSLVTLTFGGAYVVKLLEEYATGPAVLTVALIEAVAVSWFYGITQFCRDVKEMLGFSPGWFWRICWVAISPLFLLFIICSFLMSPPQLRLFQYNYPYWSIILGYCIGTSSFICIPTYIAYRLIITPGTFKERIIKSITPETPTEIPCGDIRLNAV
T2 sequence (P23975 whole entry): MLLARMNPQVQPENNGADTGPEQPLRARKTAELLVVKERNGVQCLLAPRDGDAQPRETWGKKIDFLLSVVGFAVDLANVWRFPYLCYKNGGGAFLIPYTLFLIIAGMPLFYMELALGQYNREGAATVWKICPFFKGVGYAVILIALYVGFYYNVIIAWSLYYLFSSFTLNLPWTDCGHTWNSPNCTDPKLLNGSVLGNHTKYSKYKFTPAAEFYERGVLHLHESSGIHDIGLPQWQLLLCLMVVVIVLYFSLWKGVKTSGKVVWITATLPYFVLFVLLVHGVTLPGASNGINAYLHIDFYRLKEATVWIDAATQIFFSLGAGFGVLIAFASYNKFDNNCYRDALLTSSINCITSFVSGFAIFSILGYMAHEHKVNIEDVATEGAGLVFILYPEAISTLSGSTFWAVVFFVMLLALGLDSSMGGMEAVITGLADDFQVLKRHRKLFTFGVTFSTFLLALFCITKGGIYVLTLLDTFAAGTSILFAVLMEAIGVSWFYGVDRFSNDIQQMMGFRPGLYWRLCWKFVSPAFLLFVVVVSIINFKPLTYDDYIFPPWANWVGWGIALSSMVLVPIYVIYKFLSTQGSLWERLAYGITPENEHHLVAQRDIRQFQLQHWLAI

Row | Ki [1] [nM] | Ki [2] [nM] | SMILES
1 | 3.98 | 31.6 | Clc1ccccc1OCc1ccccc1C1CCNCC1 [Compound 2-chloro]
2 | 12.6 | 5.01 | Fc1ccccc1OCc1ccccc1C1CCNCC1 [Compound 3-1]
3 | 1.58 | 31.6 | Cc1ccccc1OCc1ccccc1C1CCNCC1 [Compound 2-methyl]
4 | 31.6 | 39.8 | c1ccc(OCc2ccccc2C2CCNCC2)cc1 [unsubstituted]

From patent US10946007B2, “4-[2-(2-fluorophenoxymethyl)phenyl]piperidine compounds” (THERAVANCE BIOPHARMA R&D IP, LLC, priority 2008, dated 2021)
